The nature of this series: gel formation in contact with water / dissolution media. The class given is physicochemical. The note with it: solid forms. From the text:
The marketed product comprises lenvatinib mesylate. It is known that the lenvatinib mesylate salt gelifies when in contact with dissolution media, this may cause a delay in its release. EP1797881 discloses a pharmaceutical composition that solved the above problems using an alkaline excipient with a pH of 8 a 5% w/w aqueous solution to reduce the degradation of the active substance and silicic acid to inhibit gelation. Sodium carbonates are described as suitable alkaline excipient.
Gelification limits the dissolution of API and can influence bioavailability of the drug.

For the substance lenvatinib besylate, the “tendency to form a gel when in contact with water” value is “don't tend to form a gel”.

(Values after patent publication US12102630B2 (Synthon B.V., priority 2018, dated 2024).)
